pIC50: −log10 of the molar value.
Assays:
[1] = biological target: T1, human STAT6/pIL-4Rα (Homo sapiens, UniProt P42226); experiment: Binding inhibitory activity between human STAT6/pIL-4Rα by fluorescence polarization method; conditions: rhSTAT6 (123-658) / FAM-pIL-4Rα peptide
T1 construct: histidine tag
T1 sequence (P42226 123-658): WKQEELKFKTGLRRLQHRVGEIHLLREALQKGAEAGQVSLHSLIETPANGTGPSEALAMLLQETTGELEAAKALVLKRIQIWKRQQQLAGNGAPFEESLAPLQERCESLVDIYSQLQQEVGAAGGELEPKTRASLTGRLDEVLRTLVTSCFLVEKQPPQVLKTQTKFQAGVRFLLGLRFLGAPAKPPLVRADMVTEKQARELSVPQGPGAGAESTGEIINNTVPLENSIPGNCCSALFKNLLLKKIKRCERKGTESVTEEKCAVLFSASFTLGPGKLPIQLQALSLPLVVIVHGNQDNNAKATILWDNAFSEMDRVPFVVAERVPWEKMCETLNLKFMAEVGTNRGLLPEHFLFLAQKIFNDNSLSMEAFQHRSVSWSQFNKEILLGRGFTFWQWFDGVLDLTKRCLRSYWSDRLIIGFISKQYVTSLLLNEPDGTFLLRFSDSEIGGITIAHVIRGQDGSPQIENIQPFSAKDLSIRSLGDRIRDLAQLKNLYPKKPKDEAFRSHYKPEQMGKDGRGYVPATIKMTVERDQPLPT
Protocol: Test Example 1: Measurement of Binding Inhibitory Activity Between Human STAT6/pIL-p 4Rα by Fluorescence Polarization Method
1) Construction of Histidine Tag-Fused Recombinant Human STAT6 (123 to 658 Region)
A histidine tag-fused recombinant human STAT6 (hereinafter referred to as rhSTAT6) expression vector [plasmid DNA in which a nucleic acid sequence containing human STAT6 (123-658 region) was inserted into a pET28a(+) vector (Novagen)] was inserted into E. coli, and the cells were cultured overnight under culturing conditions at 17° C. with IPTG treatment. After disrupting E. coli with a high-pressure homogenizer (EmulsiFlex-C3, manufactured by AVESTIN, Inc.), affinity purification using Ni-NTA agarose (manufactured by Qiagen), cation exchange chromatography using HiTrap® CM-FF (manufactured by GE healthcare), and gel filtration chromatography using Superdex® 200 10/300GL (manufactured by GE healthcare) were performed to obtain rhSTAT6.
2) Measurement of Binding Inhibitory Activity Between Human STAT6/pIL-4Rα by Fluorescence Polarization Method
A DMSO solution of the example compound was diluted with an assay buffer [for example, a buffer containing 50 mmol/L NaCl, 10 mmol/L HEPES (pH 7.0), 1 mmol/L DTT, 1 mmol/L EDTA, and 0.01 vol % NP-40, and the like] to prepare a compound-added solution. The DMSO concentration in the compound addition solution was adjusted to 1 or 2 vol %. 10 μL of the compound addition solution and an assay buffer containing 1 or 2 vol % DMSO were added to each well of a 384-well plate. 5 μL of an assay buffer solution containing rhSTAT6 (rhSTAT6 concentration: for example, 1 μmol/L) or an assay buffer was added to each well of a 384-well plate. After leaving the plate at room temperature for 30 minutes in the dark, 5 μL of an assay buffer solution (FAM-pIL-4Rp concentration: for example, 80 nmol/L) containing FAM-labeled phosphorylated IL-4Rα peptide (sequence: FAM-Ala-pTyr-Lys-Pro-Phe-Gln-Asp-Leu-IIe-NH2) (hereinafter, FAM-pIL-4Rp) or an assay buffer containing 2 vol % DMSO was added to each well of the 384-well plate. The mixture was left to stand at room temperature for 30 minutes in the dark, and then centrifuged (200 g, 1 minute, room temperature). Fluorescence polarization values were measured using Infinite (registered trademark) F500 (manufactured by Tecan Japan Co., Ltd.) (Excitation: 485 nm, Emission: 535 nm). The inhibition rate of each Example compound was calculated according to the following formula using the fluorescence polarization value (A) when rhSTAT6 and FAM-pIL-4Rp were added without adding the Example compound, the fluorescence polarization value (B) when FAM-pIL-4Rp was added without adding the Example compound and rhSTAT6, and the fluorescence polarization value (C) when each Example compound, rhSTAT6, and FAM-pIL-4Rp were added.
In the evaluation of each example compound, the 50% inhibitory concentration (IC50) of each example compound was calculated from a linear function equation of a straight line connecting two points sandwiching 50%.

[2] = test system: human STAT6; experiment: Human STAT6 dependent reporter activity (IL-4 stimulated STAT6 reporter assay using STAT6-HEK293 cells); assay type: cell-based; conditions: Homo sapiens, IL-4 stimulation, luciferase activity, read-out: Inhibition rate (%); for inhibition at 0.1 µM: compound 0.1 μmol/L; for inhibition at 1 µM: compound 1 μmol/L
Protocol: Test Example 2: Measurement of Human STAT6 Dependent Reporter Activity
1) Construction of Human STAT6-HEK293 Cells
HEK 293 cells maintenance cultured by [Penicillin-Streptomycin (Thermo Fisher Scientific) and FBS, 1 vol % and 10 vol % respectively added to DMEM high glucose (Thermo Fisher Scientific)](manufactured by ATCC) were collected, and suspended in 10 mL of 0.5% BSA/PBS. 1×10^6 cells were collected, the supernatant was removed by centrifuging, and the cells were suspended in 100 μL of Nucleofector solution V (manufactured by Lonza K.K.). 2 μg of STAT6 vector [plasmid DNAs incorporating human STAT6 sequences in pcDNA3.1 (Invitrogen)] was added, and the STAT6 vector was introduced into the HEK293 cells using the program Q-001 initially registered in the Nucleofector®2b. A cell line (STAT6-HEK293 cells) consistently expressing STAT6 was acquired by selecting resistant cells in a medium containing Geneticin® (manufactured by Thermo Fisher Scientific). 2) STAT6 reporter assay using STAT6-HEK293 cells 3×10^6 STAT6-HEK293 cells maintained in assay medium [culture medium supplemented with 1 vol % Geneticin®] were harvested and seeded in a 10 cm dish. 3 μg of a STAT6 reporter vector [plasmid in which a sequence containing a STAT6 binding sequence and a C/EBP binding sequence in tandem was incorporated into pGL4.27 (manufactured by Promega Corporation)] and 9 μL of FuGENE® HD transfection reagent (manufactured by Promega Corporation) were added to 500 μL of Opti-MEM® (manufactured by Thermo Fisher Scientific) to prepare transfection solutions. The transfection solution was vortexed and left to stand for about 5 minutes, then added dropwise to the STAT6-HEK293 cells, which were then cultured overnight in a C02 incubator to produce STAT6 reporter cells.
The prepared STAT6 reporter cells were seeded on B&W isoplate-96 TC (PerkinElmer Japan Co., Ltd.) (3×10^4 cells/50 μL/well) and cultured overnight in a C02 incubator (37° C., 5% C02). 50 μL of assay medium was added to each well instead of the STAT6 reporter cells. The compound addition solution was prepared by diluting the DMSO solution of the example compound 250-fold using the assay medium. 20 μL of compound addition solution or 0.4 vol % DMSO-containing assay medium was added to the plate, and the plate was then cultured in a CO2 incubator for 1 hour. 10 μL of 80 ng/mL human IL-4 solution (Peprotech) or assay medium was added to each well, and the cells were cultured in a CO2 incubator for 6 hours.
STAT6 reporter activity was measured using the Bright-Glo® Luciferase Assay System (Promega). 100 μL of Bright-Glo® reagent was added to each well, and luciferase activity was measured using Infinite® F500. The inhibition rate of each Example compound was calculated by the following formula using the luciferase activity value (G) when no Example compound was added and stimulation with IL-4 was performed, the luciferase activity value (H) when no Example compound was added and stimulation with IL-4 was not performed, and the luciferase activity value (I) when each Example compound was treated and stimulation with IL-4 was performed.
Note that the viable cell rate under each condition was 70% or more, and it was determined that the luciferase activity inhibitory activity of each example compound was appropriately evaluated.

Row | SMILES | pIC50 [1] | inhibition at 0.1 µM [2] | inhibition at 1 µM [2]
1 | Cc1nn(C)c(=O)n1-c1ccc(-c2cc3cc(C(F)(F)F)nc(C(=O)Nc4cccc(C(N)=O)c4F)c3n2C)cc1 [Ex. 94] | 6.51 | 79% | 
2 | COCCn1c(-c2ccc(N3C(=O)C(C)CC3C)cc2)cc2ccnc(C(=O)Nc3ccc(F)c(C(N)=O)c3)c21 (stereo not drawn) [Ex. 137] | 6.55 | 62% | 
3 | COCCn1c(-c2ccc(N3C(=O)C(C)CC3C)cc2)cc2ccnc(C(=O)Nc3cccc(C(N)=O)c3)c21 (stereo not drawn) [Ex. 136] | 6.32 | 61% | 
4 | COCCn1c(-c2ccc(-n3c(C)nn(C)c3=O)cc2)cc2ccnc(C(=O)Nc3cccc(C(=O)Nc4cccc(OC)n4)c3)c21 [Ex. 197] | 6.60 | 73% | 
5 | CCn1ccc(NC(=O)c2cccc(NC(=O)c3cc(C(F)(F)F)cc4cc(-c5ccc(-n6c(C)nn(C)c6=O)cc5)n(CCOC)c34)c2)n1 [Ex. 177] | 6.52 | 99% | 
6 | COCCn1c(-c2ccc(-n3c(C)nn(C)c3=O)cc2)cc2cc(C(F)(F)F)cc(C(=O)Nc3ccccn3)c21 [Ex. 69] | 6.54 | 61% | 100%
7 | CCn1c(-c2ccc(-n3c(C)nn(C)c3=O)cc2)cc2ccnc(C(=O)Nc3cccc(C(=O)Nc4ccn(C)n4)c3)c21 [Ex. 201] | 6.51 | 99% | 
8 | CCn1c(-c2ccc(-n3c(C)nn(C)c3=O)cc2)cc2ccnc(C(=O)Nc3cccc(C(=O)Nc4cncn(C)c4=O)c3)c21 [Ex. 167] | 6.62 | 90% | 99%
9 | CCn1c(-c2ccc3c(c2)CCN(C(C)=O)C3)nc2cc(C(F)(F)F)cc(C(=O)Nc3cccc(C(N)=O)c3)c21 [Ex. 3] | 5.64 |  | 
10 | CCCc1cc(C(=O)Nc2cccc(C(N)=O)c2)c2c(c1)nc(-c1ccc(N(C)C(C)=O)cc1)n2CCOC [Ex. 204] | 5.63 |  | 
11 | COCCn1c(-c2ccc(-n3c(C)nn(C)c3=O)cc2)cc2cc(C(F)(F)F)cc(C(=O)Nc3ccncc3)c21 [Ex. 54] | 5.47 |  | 
12 | CCn1c(-c2ccc(-n3c(C)nn(C)c3=O)cc2)cc2ccnc(C(=O)Nc3cccc(C(N)=O)c3)c21 [Ex. 82] | 5.94 |  | 
13 | COCCn1c(-c2ccc(N(C)C(C)=O)cc2)nc2cc(COC)cc(C(=O)Nc3cccc(C(N)=O)c3)c21 [Ex. 215] | 5.53 |  | 
14 | COCCn1c(-c2ccc(-n3c(C)nn(C)c3=O)cc2)cc2cc(C(F)(F)F)cc(C(=O)Nc3cc[nH]n3)c21 [Ex. 81] | 5.64 |  | 

Reference: US20260092054A1, “FUSED RING COMPOUND AND PHARMACEUTICAL CONTAINING SAME” (KAKEN PHARMACEUTICAL CO., LTD., priority 2022, published 2026)
